This is an account of results in ChEMBL document CHEMBL1201862, “PubChem BioAssay data set” (2004).

The source made the active and inactive calls.

A short description of experiment [1]: Luminescence Cell-Based Dose Retest to Confirm Inhibitors of Cancer Stem Cells. [Related pubchem assays (depositor defined):AID2717, AID2721]. Particulars: Homo sapiens. The experiment is classed as functional.
The target of experiment [2] is T1, High affinity choline transporter 1 (Homo sapiens, UniProt Q9GZV3).
T1 sequence (Q9GZV3 whole entry): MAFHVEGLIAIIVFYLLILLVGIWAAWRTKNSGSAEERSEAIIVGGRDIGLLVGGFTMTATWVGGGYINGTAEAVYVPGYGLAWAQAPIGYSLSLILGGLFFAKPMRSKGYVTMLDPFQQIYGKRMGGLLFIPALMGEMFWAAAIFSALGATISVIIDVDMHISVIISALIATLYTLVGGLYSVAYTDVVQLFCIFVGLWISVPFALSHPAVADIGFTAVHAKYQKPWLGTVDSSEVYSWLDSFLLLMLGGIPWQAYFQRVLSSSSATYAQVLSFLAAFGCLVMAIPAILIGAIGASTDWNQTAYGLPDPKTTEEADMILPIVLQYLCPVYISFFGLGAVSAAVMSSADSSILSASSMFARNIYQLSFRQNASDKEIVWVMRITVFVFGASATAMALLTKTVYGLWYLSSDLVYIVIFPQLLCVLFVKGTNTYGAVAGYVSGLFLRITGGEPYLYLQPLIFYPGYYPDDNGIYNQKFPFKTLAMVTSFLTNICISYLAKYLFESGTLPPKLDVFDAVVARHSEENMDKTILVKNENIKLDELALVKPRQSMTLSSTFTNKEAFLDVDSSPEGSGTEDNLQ
Put plainly: human choline transporter blockers, potency – cell-based, 5-point CRC, membrane potential dye, dose response (AID 504840). The experiment is classed as functional.

In the next experiment the target is T2, Streptokinase A (Streptococcus pyogenes serotype M1, UniProt P10520).
T2 sequence (P10520 whole entry): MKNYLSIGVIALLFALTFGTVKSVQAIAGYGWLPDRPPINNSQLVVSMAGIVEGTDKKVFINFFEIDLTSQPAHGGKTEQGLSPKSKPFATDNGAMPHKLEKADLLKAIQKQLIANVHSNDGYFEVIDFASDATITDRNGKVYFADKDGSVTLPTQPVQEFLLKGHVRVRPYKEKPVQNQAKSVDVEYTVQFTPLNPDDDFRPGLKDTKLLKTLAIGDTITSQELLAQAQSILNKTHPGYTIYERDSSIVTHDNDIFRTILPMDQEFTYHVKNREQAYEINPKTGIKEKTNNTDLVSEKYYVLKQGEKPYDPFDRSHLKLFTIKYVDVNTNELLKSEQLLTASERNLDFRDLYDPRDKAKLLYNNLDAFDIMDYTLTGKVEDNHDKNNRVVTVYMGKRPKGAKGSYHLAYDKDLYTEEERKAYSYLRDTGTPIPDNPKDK
In words: viability-normalized secreted streptokinase activity reduction – plasminogen activation absorbance, OD405, dose response (AID 1914).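 Further: secreted streptokinase activity via plasminogen activation per viability signal from cell pellet.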 The experiment is classed as functional, Streptococcus pyogenes M1 GAS.

Experiment [3] has as its target T3, Serine/threonine-protein phosphatase (Candida dubliniensis (strain CD36 / CBS 7987 / NCPF 3949 / NRRLY-17841) (Yeast), UniProt B9W6M3).
T3 sequence (B9W6M3 whole entry): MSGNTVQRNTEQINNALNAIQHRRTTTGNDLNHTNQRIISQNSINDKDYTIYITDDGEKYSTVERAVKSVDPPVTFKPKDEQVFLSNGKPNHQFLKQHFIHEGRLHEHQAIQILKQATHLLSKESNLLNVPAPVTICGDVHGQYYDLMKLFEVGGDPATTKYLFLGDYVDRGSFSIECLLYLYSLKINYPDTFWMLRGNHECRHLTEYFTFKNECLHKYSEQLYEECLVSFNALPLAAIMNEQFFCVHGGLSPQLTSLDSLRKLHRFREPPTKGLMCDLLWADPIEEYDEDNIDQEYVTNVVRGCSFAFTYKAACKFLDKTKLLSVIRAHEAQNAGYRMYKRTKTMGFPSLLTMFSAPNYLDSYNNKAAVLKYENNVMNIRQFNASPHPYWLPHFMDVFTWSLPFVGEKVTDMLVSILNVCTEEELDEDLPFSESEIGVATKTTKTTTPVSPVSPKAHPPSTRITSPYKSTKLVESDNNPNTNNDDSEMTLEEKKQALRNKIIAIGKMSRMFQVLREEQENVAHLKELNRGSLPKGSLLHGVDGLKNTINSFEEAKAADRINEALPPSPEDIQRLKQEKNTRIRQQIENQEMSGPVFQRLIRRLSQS
In words: blockers of CaCl2-induced CDRE-lacZ signaling – S. cerevisiae, luminescence, secondary, dose response (AID 2388).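 Further: yeast reporter cells carrying a calcineurin-responsive lacZ construct stimulated with calcium chloride; luminescent beta-galactosidase reporter signal in whole cells rather than isolated phosphatase activity; potency for inhibition where a drop in reporter signal means calcineurin blockade.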 The experiment is classed as functional, cell-based.

A short description of experiment [4]: fluconazole-exposed Candida albicans growth modulators – fluorescence, retest, confirmation (AID 2467). The experiment is classed as functional, cell-based.
For experiment [5], the target named is ATP-dependent molecular chaperone HSP82 (Candida albicans (strain WO-1) (Yeast), UniProt C4YTQ8). In words: steroid-induced GRE reporter decrease in yeast – S. cerevisiae, luminescence, Hsp90 inhibitor project, dose response (AID 2400).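 Further: beta-galactosidase luminescence from glucocorticoid response element reporter as proxy for Hsp90 function; inhibitor potency where signal loss means Hsp90 inhibition.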 The experiment is classed as functional, cell-based.
In experiment [6] the test system is Streptococcus sp. 'group A'. Put plainly: Streptococcus pyogenes SK(-)GAS viability under kanamycin – luminescence, BacTiterGlo, confirmation, counter-screen for streptokinase expression inhibitor project, dose response (AID 1900). The experiment is classed as functional, organism-based.
In another experiment the test system is Streptococcus. Put plainly: GAS UMAA2166 growth inhibition – luminescence, BacTiterGlo, counter-screen for streptokinase expression inhibitor project, dose response (AID 1915).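 Further: potency for reduction of bacterial viability or growth.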 The experiment is classed as functional, organism-based. (Counterscreens check selectivity or assay interference.)
The nature of experiment [7]: NIH-3T3 fibroblast cytotoxicity, dose response, cytotoxicity control, cell-based, fluorescence, Alamar Blue, secondary assay (AID 2327).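 Further: NIH-3T3 mouse fibroblasts cultured with fluconazole at 8 µg/mL.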 The experiment is classed as functional. A general note: Alamar Blue is a resazurin reagent that responds to reducing activity.
In experiment [8] the target is Glyceraldehyde-3-phosphate dehydrogenase (Homo sapiens, UniProt P04406).
In experiment [9] the target is T4, Alkaline phosphatase, tissue-nonspecific isozyme (Homo sapiens, UniProt P05186).
T4 sequence (P05186 whole entry): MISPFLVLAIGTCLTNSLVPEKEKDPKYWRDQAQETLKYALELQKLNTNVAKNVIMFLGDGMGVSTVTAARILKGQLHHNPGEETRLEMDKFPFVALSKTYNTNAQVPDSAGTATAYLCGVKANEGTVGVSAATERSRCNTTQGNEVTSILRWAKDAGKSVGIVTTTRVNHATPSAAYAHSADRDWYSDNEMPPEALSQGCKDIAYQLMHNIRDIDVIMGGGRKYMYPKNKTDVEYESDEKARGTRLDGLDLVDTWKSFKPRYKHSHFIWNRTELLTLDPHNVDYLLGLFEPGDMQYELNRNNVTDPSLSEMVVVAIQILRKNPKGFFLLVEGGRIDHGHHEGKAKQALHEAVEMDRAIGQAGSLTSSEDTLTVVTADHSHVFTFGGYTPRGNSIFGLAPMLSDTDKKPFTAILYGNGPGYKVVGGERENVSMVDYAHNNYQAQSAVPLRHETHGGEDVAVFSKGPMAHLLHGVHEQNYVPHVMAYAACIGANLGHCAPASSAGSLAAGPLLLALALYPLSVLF
In words: potency against alkaline phosphatase TNAP – biochemical, luminescent, dose response, SAR follow-up (AID 1056).

Experiment [10] can be described thus: microbe, parasite or virus in culture. The experiment is classed as functional. Particulars: Mycobacterium tuberculosis.
Experiment [11] relates to Vero. Put plainly: cells. The experiment is classed as functional, cell-based. The following applies: Chlorocebus sabaeus.
For experiment [12], the target named is T5, Short transient receptor potential channel 4 (Mus musculus, UniProt Q9QUQ5).
T5 sequence (Q9QUQ5 whole entry): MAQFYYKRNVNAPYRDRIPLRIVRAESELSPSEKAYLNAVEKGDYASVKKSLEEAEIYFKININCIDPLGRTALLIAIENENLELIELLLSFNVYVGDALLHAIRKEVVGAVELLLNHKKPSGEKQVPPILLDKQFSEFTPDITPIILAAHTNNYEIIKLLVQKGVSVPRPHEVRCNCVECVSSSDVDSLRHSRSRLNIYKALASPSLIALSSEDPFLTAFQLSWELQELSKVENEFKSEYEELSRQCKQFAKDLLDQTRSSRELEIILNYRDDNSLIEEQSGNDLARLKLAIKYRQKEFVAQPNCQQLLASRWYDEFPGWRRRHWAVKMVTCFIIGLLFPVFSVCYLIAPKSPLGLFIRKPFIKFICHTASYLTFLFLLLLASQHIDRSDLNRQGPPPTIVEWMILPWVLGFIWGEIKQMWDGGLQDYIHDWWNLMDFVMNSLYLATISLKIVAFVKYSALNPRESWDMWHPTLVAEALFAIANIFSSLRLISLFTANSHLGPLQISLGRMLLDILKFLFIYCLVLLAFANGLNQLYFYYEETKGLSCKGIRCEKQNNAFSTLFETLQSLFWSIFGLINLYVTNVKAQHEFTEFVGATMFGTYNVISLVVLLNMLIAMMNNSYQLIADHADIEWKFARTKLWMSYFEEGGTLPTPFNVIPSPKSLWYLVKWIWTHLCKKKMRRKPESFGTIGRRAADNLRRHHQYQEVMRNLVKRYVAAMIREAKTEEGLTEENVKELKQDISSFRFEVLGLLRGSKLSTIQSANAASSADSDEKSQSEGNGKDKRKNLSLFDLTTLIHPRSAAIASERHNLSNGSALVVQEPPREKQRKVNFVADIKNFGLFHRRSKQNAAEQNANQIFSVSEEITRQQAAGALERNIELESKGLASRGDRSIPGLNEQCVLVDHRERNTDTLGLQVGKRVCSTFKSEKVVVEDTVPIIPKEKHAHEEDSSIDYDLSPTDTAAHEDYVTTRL
In words: calcium entry via TRPC4 opening agents – cell-based, HEK293 TRPC4/mu-opioid, Fluo-4 calcium, dose response (AID 434937). The experiment is classed as functional.

Experiment [13] has as its target T5, Short transient receptor potential channel 4. In words: block of DAMGO-driven TRPC4 calcium entry – cell-based, HEK293 TRPC4/mu-opioid, Fluo-4 calcium, dose response (AID 434942).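 Further: potency of inhibitors blocking the TRPC4 calcium response.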 The experiment is classed as functional.
Experiment [14] has as its system Vero. In words: cells. The experiment is classed as functional. Particulars: Chlorocebus sabaeus.
The target of experiment [15] is T6, Nucleotide-binding oligomerization domain-containing protein 1 (Homo sapiens, UniProt Q9Y239).
T6 sequence (Q9Y239 whole entry): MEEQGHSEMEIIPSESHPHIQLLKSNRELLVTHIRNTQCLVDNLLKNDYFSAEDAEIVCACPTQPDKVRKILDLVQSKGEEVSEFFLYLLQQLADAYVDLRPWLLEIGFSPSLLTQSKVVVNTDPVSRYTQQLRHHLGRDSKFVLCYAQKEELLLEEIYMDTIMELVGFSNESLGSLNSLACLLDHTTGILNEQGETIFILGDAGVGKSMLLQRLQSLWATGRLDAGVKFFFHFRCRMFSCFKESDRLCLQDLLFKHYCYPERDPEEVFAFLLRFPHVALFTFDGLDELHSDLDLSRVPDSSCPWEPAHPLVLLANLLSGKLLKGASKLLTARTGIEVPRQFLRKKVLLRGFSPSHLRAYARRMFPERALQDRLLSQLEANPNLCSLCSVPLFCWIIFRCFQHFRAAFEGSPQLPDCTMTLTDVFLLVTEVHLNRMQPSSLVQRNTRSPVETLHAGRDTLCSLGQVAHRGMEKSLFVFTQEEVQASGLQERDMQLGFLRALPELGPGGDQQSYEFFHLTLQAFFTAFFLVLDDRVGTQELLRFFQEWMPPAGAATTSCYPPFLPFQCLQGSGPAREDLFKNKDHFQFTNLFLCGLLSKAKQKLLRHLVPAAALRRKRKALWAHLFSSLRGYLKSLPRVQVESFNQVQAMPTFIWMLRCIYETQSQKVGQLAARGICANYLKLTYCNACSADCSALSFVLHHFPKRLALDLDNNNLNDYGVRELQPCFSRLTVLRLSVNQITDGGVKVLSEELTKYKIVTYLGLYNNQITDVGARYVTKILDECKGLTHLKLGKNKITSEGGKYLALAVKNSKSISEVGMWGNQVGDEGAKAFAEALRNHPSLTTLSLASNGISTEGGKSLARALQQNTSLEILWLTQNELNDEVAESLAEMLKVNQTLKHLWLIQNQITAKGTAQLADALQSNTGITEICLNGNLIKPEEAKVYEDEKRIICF
In words: blockers of NOD1 pathway activity – revised, SAR follow-up (AID 2333). The experiment is classed as functional.

In another experiment the target is Tumor necrosis factor (Homo sapiens, UniProt P01375). Put plainly: analog potency on TNFa NF-kB signaling – cell-based, revised, SAR follow-up (AID 2337). The experiment is classed as functional.
The next experiment has as its system HEK293. In words: cells. The following applies: Homo sapiens.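 Further: cells exposed to compound for 14 hours overnight before viability readout.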
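Wherever AC50 is given: cells exposed to compound for roughly 70 hours or longer before luminescence read.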

Glyceraldehyde-3-phosphate dehydrogenase, sequence (P04406 whole entry): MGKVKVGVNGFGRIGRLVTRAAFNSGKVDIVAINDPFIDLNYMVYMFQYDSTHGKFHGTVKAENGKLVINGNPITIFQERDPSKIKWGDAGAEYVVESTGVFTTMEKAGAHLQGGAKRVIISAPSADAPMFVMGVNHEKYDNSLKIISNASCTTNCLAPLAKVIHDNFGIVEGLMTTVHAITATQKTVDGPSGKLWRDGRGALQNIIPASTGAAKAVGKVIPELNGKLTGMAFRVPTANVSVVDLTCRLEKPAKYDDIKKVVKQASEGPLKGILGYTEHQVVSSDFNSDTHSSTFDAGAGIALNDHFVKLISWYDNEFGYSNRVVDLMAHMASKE
ATP-dependent molecular chaperone HSP82, sequence (C4YTQ8 whole entry): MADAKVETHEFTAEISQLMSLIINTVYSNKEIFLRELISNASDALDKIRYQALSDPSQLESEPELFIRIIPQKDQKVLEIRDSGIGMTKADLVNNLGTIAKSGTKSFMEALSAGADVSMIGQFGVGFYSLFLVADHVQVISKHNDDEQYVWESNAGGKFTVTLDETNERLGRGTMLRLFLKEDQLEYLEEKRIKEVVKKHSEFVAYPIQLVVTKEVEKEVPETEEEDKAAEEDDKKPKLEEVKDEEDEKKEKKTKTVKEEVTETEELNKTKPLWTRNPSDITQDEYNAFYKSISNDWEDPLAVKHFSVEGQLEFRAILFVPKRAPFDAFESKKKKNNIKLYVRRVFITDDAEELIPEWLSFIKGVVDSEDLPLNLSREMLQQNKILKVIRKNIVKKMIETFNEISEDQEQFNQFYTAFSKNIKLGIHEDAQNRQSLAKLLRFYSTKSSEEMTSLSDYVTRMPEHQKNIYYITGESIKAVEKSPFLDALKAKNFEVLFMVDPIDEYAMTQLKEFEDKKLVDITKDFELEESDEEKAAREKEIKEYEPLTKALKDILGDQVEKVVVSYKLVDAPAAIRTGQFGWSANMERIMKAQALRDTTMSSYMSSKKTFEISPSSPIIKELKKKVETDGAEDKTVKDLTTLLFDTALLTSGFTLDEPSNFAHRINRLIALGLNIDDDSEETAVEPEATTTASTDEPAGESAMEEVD
Tumor necrosis factor, sequence (P01375 whole entry): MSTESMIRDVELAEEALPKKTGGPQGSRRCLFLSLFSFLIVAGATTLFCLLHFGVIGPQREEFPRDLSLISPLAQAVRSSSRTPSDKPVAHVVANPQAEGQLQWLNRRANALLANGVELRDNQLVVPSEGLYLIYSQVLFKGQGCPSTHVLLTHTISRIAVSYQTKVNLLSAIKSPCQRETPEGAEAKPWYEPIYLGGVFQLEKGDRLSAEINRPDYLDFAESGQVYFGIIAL

`O=C(NNC1=C(C(=O)C(F)(F)F)CCC1)c1cccc(Cl)c1`: the AC50 (as a rule, the concentration giving half of the maximal activity seen) in [1] is 1.95 µM (active). Moreover, the IC50 (as a rule, the midpoint of a concentration-inhibition curve) in experiment [2] is 11 µM (active). Also, the EC50 (usually the concentration needed to bring the measured effect to its halfway point) on Streptokinase A was > 150 µM (not active); in experiment [3], > 180 µM (inactive); in [4], 0.741 µM (active); in experiment [5], 24.6 µM (active); in experiment [6], 1.23 µM (active); with Streptococcus, 2.77 µM (active). In experiment [7], the EC50 was > 150 µM (inactive).
Consider `O=C(O)c1cc(-c2ccc3c(c2)OCCO3)n[nH]1`, for which the figures for the IC50 in [8] and in [9] were > 100 µM (not active) and 49.8 µM (active), respectively.
Turning to `CC(C)(C)c1ccc(C(=O)NC(=S)NNC(=O)COc2ccccc2)cc1`, the CC50 in [10] is 34.1 µM (active); in the experiment with Vero [14], > 25 µM (active). Further, in the experiment on Vero [11], the IC50 is 23 µM (active). Further, the EC50 in experiment [4] was 1.58 µM (active); in experiment [12], 5.96 µM (active); in experiment [13], 6.68 µM (active); in experiment [6], 0.067 µM (active); in the experiment with Streptococcus, 1.76 µM (active); in experiment [7], > 150 µM (inactive).
As to `COc1ccc(NC(=O)c2ccc(CN3CCc4ccccc43)cc2)cc1`, the IC50 (in experiment [15]; on Tumor necrosis factor; in the experiment with HEK293) was > 20 µM (inactive) in each case.
`c1cnc(-c2cccnc2)nc1`: the IC50 was > 100 µM (not active) in experiment [8] and > 100 µM (inactive) in experiment [9].
The matching figures for `CCn1cnc(-c2cccnc2)c1`: > 100 µM (not active) and > 100 µM (inactive).
